Results from US6680308B1, “Use of organophosphorus compounds for the therapeutic and prophylactic treatment of infections” (priority 1998, dated 2004).

How the values were obtained:
Plasmodium vinckeii [1] = assay: Protection from malaria in infected mice, pretreatment one day before infection; type: in vivo, mice (BALB/c-strain)
Method: The efficacy of compounds in vivo against malaria was tested using male mice weighing 20 to 25 g (BALB/c-strain). Four mice were treated intraperitoneally with 50 mg/kg 3-(N-formyl-N-hydroxylamino)-propylphosphonic acid monosodium salt one day before infection. The mice were then infected with Plasmodium vinckeii. Mice which were not pretreated with the substance served as a control group.

[2] = system: Plasmodium falciparum HB3 (Honduras); assay: In vitro cytotoxicity against malaria parasites, [3H]-hypoxanthine insertion, strain HB3; type: cell-based; conditions: strain HB3, resistant to pyrimethamine, 48 hours incubation, then 24 hours [3H]-hypoxanthine, read-out: IC50 value (concentration at which the vitality of parasites is reduced by a half)
Method: (§1) On the Principle of IC50 Determination According to Vial et al (the Concentration at Which the Vitality of Parasites is Reduced by a Half)
(§2) To determine the IC50 value according to Vial et al malaria parasites are initially cultivated for a complete 48 hour cycle in the presence of inhibitors, in the subsequent 24 hours the survival rate is measured by [^3H]-hypoxanthine insertion.
(§3) A dilution series of 3-(N-formyl-N-hydroxylamino)-propylphosphonic acid monosodium salt is placed in 20 μl aliquots concentrated by 10 on a microtitre plate. Then 180 μl parasite suspension in culture medium is added to each well. Asynchronous cultures with a parasitaemia of approximately 0.4% and 2% haematocrite are used. The microtitre plates are subsequently incubated for 48 hours. Then 30 μl [^3H]-hypoxanthine are added to each well. After 24 hours of incubation the cells were harvested and the incorporated radioactivity was measured. In FIG. 1 the results with the strains HB3 and Dd2 are shown with known resistances against other malaria pharmaceutical compositions. In both strains there is a IC50 value of approximately 100 μg/l. The resistances of these strains are:
Plasmodium falciparum HB3 (Honduras) is resistant to pyrimethamine.

Plasmodium vinckeii [3] = assay: Efficacy against malaria in vivo, modified Peters' test, treatment of infected mice
Method: The various derivatives were tested by the modified Peters' test. The substances were applied here in a quarter of the median lethal dose (LD50). In the test batch ten mice were infected with Plasmodium vinckeii, the pathogen of mouse malaria. After confirmation of the infection by blood testing four mice were treated. Six mice, which were not treated, served as a control group. […] The control mice had to be killed on day 5 after infection with parasitaemia of >80%.

[4] = system: Plasmodium falciparum Dd2 (Indo-China); assay: In vitro cytotoxicity against malaria parasites, [3H]-hypoxanthine insertion, strain Dd2; type: cell-based; conditions: strain Dd2, resistant to cloroquine, quinine, pyrimethamine, cycloguanil and sulfadoxine, 48 hours incubation, then 24 hours [3H]-hypoxanthine, read-out: IC50 value (concentration at which the vitality of parasites is reduced by a half)
Method: as §1, §2, §3
Plasmodium falciparum Dd2 (Indo-China) is resistant to cloroquine, quinine, pyrimethamine, cycloguanil and sulfadoxine.

For `O=CN(O)CCCP(=O)([O-])O.[Na+]` [3-(N-formyl-N-hydroxylamino)-propylphosphonic acid monosodium salt], the “infection in pretreated mice” value (Plasmodium vinckeii [1]; 50 mg/kg intraperitoneally one day before infection with Plasmodium vinckeii) was “No infection could be detected”, the “parasites 8 weeks after infection” value (Plasmodium vinckeii [1]; 50 mg/kg intraperitoneally one day before infection, 8 weeks after infection) was “still free of parasites” and the IC50 [2] was ~0.1 µg/mL. The “living parasites after 1 day” value (Plasmodium vinckeii [3]; 50 mg/kg/d, mice with a parasitaemia of 80%, after 1 day) was “free of living parasites”, the “parasites 8 weeks after the treatment had stopped” value (Plasmodium vinckeii [3]; 1,000 mg/kg/d over 3 days, 8 weeks after end of treatment) was “still free from parasites” and the “effect on parasites in the mice's blood” value (Plasmodium vinckeii [3]; 1,000 mg/kg/d over 3 days, mice infected with Plasmodium vinckeii) was “destruction of the parasites”. For the same compound, the “living parasites in treated group after one day” value (Plasmodium vinckeii [3]; 1,000 mg/kg/d, after just one day) was “free of living parasites” and the IC50 [4] was ~0.1 µg/mL.
